Patent publication US6413974B1, “6,9,-disubstituted 2-[trans-(4-aminocyclohexyl) amino] purines” (Aventis Pharmaceuticals Inc., priority 1998, dated 2002)
“And” between values parts separate entries of the source, which are not always exact repeats. Identical values can stand only once. Counter-ions that a name gives are not always drawn. Like-named read-outs stand apart in the source and are kept apart here.

Legend:
[1] = tested on: p34^cdc2-cyclin B kinases; conditions: Havlicek et al. 1997; cited from earlier work
[2] = tested on: PC12 cells, or rat sympathetic neurons; conditions: cited from earlier work
[3] = tested on: cortical neurons; conditions: cited from earlier work
[4] = tested on: PC-3; assay: In vitro tumor cell proliferation, PC-3; type: cell-based, human; conditions: read-out: In vitro Tumor Cell Proliferation (IC50, μM) Prostate PC-3
How it was run: (§1)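 Cells seeded overnight at 37° C, then exposed to drug 3 days, medium and drug renewed, plus 4 more days; TCA-fixed and sulforhodamine B stained. Alternatively CyQUANT read-out after 3 days' drug exposure, plates frozen at −80° C.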

[5] = biological target: T1, cdk2/cyclin E (Homo sapiens, UniProt P24941); assay: Cyclin-Dependent Kinase 2 Assay (cdk-2 inhibition); type: biochemical; conditions: GST-Rb substrate, 30 min at 30° C.
T1 construct: made in house; host or cells: insect cells (baculovirus co-infection)
How it was run: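 GST-Rb bound to glutathione-Sepharose beads (0.5 μg/well) as substrate in 50 mM HEPES pH 7.5, 10 mM MgCl2, 1 mM EGTA. Recombinant cdk2/cyclin E at 0.1 μg per 100 μl, 30 min at 30 °C. Reaction stopped by filtration, TNEN washes, scintillation counting.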

[6] = tested on: DU 145; assay: In vitro tumor cell proliferation, DU 145; type: cell-based, human
How it was run: as §1

[7] = tested on: MDA-MB-231; assay: In vitro tumor cell proliferation, MDA-MB-231; type: cell-based, human; conditions: read-out: In vitro Tumor Cell Proliferation (IC50, μM) Breast MDA-MB-231
How it was run: as §1

[8] = biological target: T2, cdk4/cyclin D1 (Homo sapiens, UniProt P11802); assay: Cyclin-dependent kinase 4 Assay; type: biochemical; conditions: cdk4/cyclin D1, GST-Rb substrate, 10 μM ATP, 30 min at 37° C.; read-out: CDK4 Inhibition IC50
T2 construct: made in house; host or cells: Sf9 insect cells (Bac-to-Bac baculovirus, pFastBac)
T2 sequence (P11802 whole entry): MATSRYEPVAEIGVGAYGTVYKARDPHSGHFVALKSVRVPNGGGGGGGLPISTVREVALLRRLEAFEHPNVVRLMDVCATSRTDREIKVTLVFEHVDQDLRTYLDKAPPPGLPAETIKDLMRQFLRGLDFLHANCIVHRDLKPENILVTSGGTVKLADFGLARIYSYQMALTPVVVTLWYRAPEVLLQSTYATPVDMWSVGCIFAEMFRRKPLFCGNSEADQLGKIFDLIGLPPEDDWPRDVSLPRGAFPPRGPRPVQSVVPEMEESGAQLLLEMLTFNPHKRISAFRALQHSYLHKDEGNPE
T2 sequence (P24385 whole entry partner): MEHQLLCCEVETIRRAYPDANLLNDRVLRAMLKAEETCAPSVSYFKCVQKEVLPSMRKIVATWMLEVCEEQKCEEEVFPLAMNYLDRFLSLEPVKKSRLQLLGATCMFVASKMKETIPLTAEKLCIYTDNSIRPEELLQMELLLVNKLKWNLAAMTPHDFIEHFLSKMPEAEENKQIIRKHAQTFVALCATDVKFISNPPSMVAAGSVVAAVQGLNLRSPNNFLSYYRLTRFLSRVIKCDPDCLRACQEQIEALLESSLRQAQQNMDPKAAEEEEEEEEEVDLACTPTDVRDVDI
How it was run: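 Insect-cell lysate of coexpressed human cdk4/cyclin D1 (0.1 μg) phosphorylated bead-bound GST-Rb (0.5 μg) in 50 mM HEPES pH 7.5, 10 mM MgCl2, 1 mM EGTA for 30 min at 37 °C. Filters were washed with TNEN and scintillation-counted; IC50 values derived.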

[9] = tested on: A549; assay: In vitro tumor cell proliferation, A549; type: cell-based, human; conditions: read-out: In vitro Tumor Cell Proliferation (IC50, μM) Lung A549
How it was run: as §1

[10] = tested on: DMS-114; assay: In vitro tumor cell proliferation, DMS-114; type: cell-based, human; conditions: read-out: In vitro Tumor Cell Proliferation (IC50, μM) Lung DMS-114
How it was run: as §1

[11] = tested on: HT-29; assay: In vitro tumor cell proliferation, HT-29; type: cell-based, human; conditions: read-out: In vitro Tumor Cell Proliferation (IC50, μM) Colon HT-29 (converted)
How it was run: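 HT-29 human colon adenocarcinoma cells plated overnight at 37° C., then exposed to drug for 3 days, medium with fresh drug replaced for a further 4 days. Cells fixed with 10% TCA and stained with 0.4% sulforhodamine B; alternatively, CyQUANT read after 3 days of drug exposure.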

[12] = tested on: MCF-7; assay: In vitro tumor cell proliferation, MCF-7; type: cell-based, human; conditions: read-out: In vitro Tumor Cell Proliferation (IC50, μM) Breast MCF-7
Method: (§2) The proliferation of tumor cells was measured using a sulforhodamine B assay as described in Skehan, P., et al., J. Natl. Cancer Inst. […] Tumor cells were harvested with trypsin-EDTA, cells that excluded trypan blue were counted, added to 96-well plates and incubated overnight at 37° C. Drug was added to the wells following dilution in culture medium. Three days later, the medium was removed and replenished with medium containing fresh drug and incubated an additional 4 days. The cells were then fixed with 0.1 ml 10% trichloroacetic acid for 60 min at 4° C. The plates were rinsed five times with tap water, air-dried and stained for 30 min with 0.4% sulforhodamine B in 1% acetic acid and air-dried.
(§3) Alternatively, the CyQUANT cell proliferation assay was used to quantify tumor cell proliferation. Tumor cells were harvested with trypsin-EDTA, cells that excluded trypan blue were counted, added to 96-well plates and incubated overnight at 37° C. Drug was added to the wells following dilution in culture medium. Three days later the medium was removed and the plates frozen at −80° C. for at least 30 minutes.
MCF7 is a human breast adenocarcinoma, hormone-dependent (HTB 22);

[13] = tested on: HCT-15; assay: In vitro tumor cell proliferation, HCT-15; type: cell-based, human; conditions: read-out: In vitro Tumor Cell Proliferation (IC50, μM) Colon HCT-15
Method: as §2, §3

[14] = tested on: neuronal PC12 cells and sympathetic neurons; conditions: cited from earlier work
[15] = tested on: proliferating PC12 cells; conditions: cited from earlier work
[16] = Homo sapiens, PC-3, values without *
[17] = values without *, dihydrochloride
[18] = Homo sapiens, DU-145, values without *, read-out: In vitro Tumor Cell Proliferation (IC50, μM) Prostate DUI45
[19] = Homo sapiens, MDA-MB-231, values without *
[20] = Homo sapiens, A549, values without *
[21] = Homo sapiens, DMS-114, values without *
[22] = Homo sapiens, HT-29, values without *
[23] = Homo sapiens, MCF7, values without *
[24] = Homo sapiens, HCT-15, values without *

CC[C@@H](CO)Nc1nc(NCc2ccccc2)c2ncn(C(C)C)c2n1 (single isomer, unassigned) [(S) enantiomer]
IC50 [1]: 800 nM

Cn1cnc2nc(NCCO)nc(NCc3ccccc3)c21 [iso-olomoucine]
prevention of cell death of camptothecin-treated neuronal cells ([2]; PC12 cells / sympathetic neurons): failed to prevent the cell death
prevention of cell death of camptothecin-treated neuronal cells ([3]; cortical neurons): failed to prevent the cell death

N[C@H]1CC[C@H](Nc2nc(NCc3ccc(Cl)c(Cl)c3)c3ncn(C4CCCC4)c3n2)CC1 [Example 10, 2-[Trans-(4-aminocyclohexyl)amino]-6-[(3,4-dichlorobenzyl)amino]-9-cyclopentylpurine dihydrochloride]
IC50 [4, 16]: 0.97 µM
IC50 [4, 17]: 0.79 µM
IC50 [5]: 140 nM
IC50 [6, 18]: 0.97 µM
IC50 ([6]; values without *, dihydrochloride, read-out: In vitro Tumor Cell Proliferation (IC50, μM) Prostate DUI45): 1.8 µM
IC50 [7, 19]: 1.2 µM
IC50 [7, 17]: 1.7 µM
IC50 [8]: 190 nM and 300 nM
IC50 [9, 20]: 1.7 µM
IC50 [9, 17]: 0.98 µM
IC50 [10, 21]: 1.5 µM
IC50 [11, 22]: 1.6 µM
IC50 [12, 23]: 1.1 µM
IC50 [12, 17]: 1.8 µM
IC50 [13, 24]: 1.9 µM

CN1CC[C@H](c2c(O)cc(O)c3c(=O)cc(-c4ccccc4Cl)oc23)[C@H](O)C1 [Flavoipiridol, reference compound]
IC50 [4, 16]: 0.07 µM
IC50 [6, 18]: 0.08 µM
IC50 [7, 19]: 0.095 µM
IC50 [9, 20]: 0.08 µM
IC50 [10, 21]: 0.08 µM
IC50 [12, 23]: 0.06 µM
cell death at day 6 ([2]; both or individual olomoucine or flavopiridol, in the presence or absence of camptothecin): approximately 30%
concentration giving maximal protection from death ([2]; camptothecin-treated PC12 cells or rat sympathetic neurons): 1 µM
IC50 ([3]; Park et al. 1997, read-out: IC50, protection against camptothecin-induced cortical neuronal death): 100 nM
apoptosis of post-mitotic differentiated or sympathetic neurons ([14]; following withdrawal of NGF): prevented apoptosis
death of neuronal PC12 cells and sympathetic neurons ([14]; two model systems of neuronal survival, Park et al. 1996): suppress the death
IC50 [13, 24]: 0.1 µM
minimum concentration that fully inhibits DNA synthesis [15]: 1 µM

N[C@H]1CC[C@H](Nc2nc(NCc3cccc(I)c3)c3ncn(C4CCCC4)c3n2)CC1 [Example 1, 2-[Trans-(4-aminocyclohexyl)amino]-6-(3-iodobenzylamino)-9-cyclopentylpurine dihydrochloride]
IC50 [4, 16]: 1.9 µM
IC50 [4, 17]: 1.1 µM and 1.2 µM
IC50 [5]: 50 nM and 70 nM and 85 nM and 37 nM and 55 nM and 65 nM
IC50 ([6]; Homo sapiens, DU-145, read-out: In vitro Tumor Cell Proliferation (IC50, μM) Prostate DUI45, values without *): 2 µM
IC50 ([6]; read-out: In vitro Tumor Cell Proliferation (IC50, μM) Prostate DUI45, values without *, dihydrochloride): 1.6 µM and 1.2 µM
IC50 [7, 19]: 1.1 µM
IC50 [7, 17]: 0.8 µM
IC50 [8]: 2000 nM
IC50 [9, 20]: 1.1 µM
IC50 [9, 17]: 1 µM
IC50 [10, 21]: 1.2 µM
IC50 [10, 17]: 0.9 µM
IC50 [11, 22]: 0.9 µM
IC50 [11, 17]: 1 µM and 1.6 µM
IC50 [12, 23]: 0.7 µM
IC50 [12, 17]: 0.6 µM
IC50 [13, 24]: 2.2 µM
IC50 [13, 17]: 1.9 µM
